Assay results: patent publication US20040259823A1, “Cationic amphiphiles as transfection vehicles” (priority 2001, published 2004)

Experiments:
COS-7 and HepG2 cells [1] = assay: Transfection with pCMV GFP plasmid, % GFP positive cells by FACS (cell line not given); format: cell-based; conditions: cell line and helper lipid not given
Protocol: (§1) Transfections were carried out following standard protocols as is described in EP 0755924. In numerous publications variations of transfection protocols are given. A person acquainted with the field of non-viral transfections, in particular transfections using cationic amphiphiles will be able to use the cationic amphiphiles of the invention in transfection methods known per se. In standard experiments COS-7 cells are transfected with plasmid DNA containing the β-galactosidase reporter gene. Upon successful transfection the cell produces the enzyme β-galactosidase whose activity can be easily measured. Other plasmids comprising alternative reporter genes such as the gene encoding Green Fluorescent Protein or Chloroamphenicol Acetyl Transferase are suited as well. For analyzing stable transfection a plasmid containing the neomycin resistance gene can be used. Toxicity of the cationic amphiphiles towards the cells can be monitored qualitatively and quantitatively by visual inspection of the cells and by a protein determination.
A solution of cationic amphiphile in a 50/50 molar ratio with DOPE, DOPC or cholesterol in chloroform was dried under a stream of nitrogen. The residual solvent was removed under vacuum. The lipid film was hydrated in water at room temperature and sonicated to clarity in a bath sonicator immediately before use.
A 4.7 kb pair plasmid containing the GFP reporter gene under control of the cytomegalovirus immediate early gene promoter/enhancer (pCMV GFP).DNA was isolated from E. coli using a Qiagen Plasmid Kit (QIAGEN Inc, USA). The plasmid concentration was determined by measuring the absoption at 260 nm using the relation 1.0 OD=50 μg/ml. The OD260/OD280 value was 1.95.
(§2) COS-7 and HepG2 cells were cultured in Dulbecco's Modified Eagle Medium (DMEM Gibco The Netherlands) containing 7% of fetal calf serum, 2 mM L-Glutamine, 100 units/ml of penicilin and […] of streptomycin at 37° C. in CO2/air (1:19).
(§3) Cells (1×10^5 cells/well) were seeded in 12-well plates and were allowed to grow overnight.
(§4) The complex of cationic amphiphile/helper lipid (1:1) with pCMV GFP was prepared at the charge ratio 2.5:1 (15 nmol lipid and 1 μg DNA), in 100 μl 10 mM HEPES (pH=7.4, 150 mM NaCl). After 10-15 min incubation at room temperature, the resulting complex was diluted in 1 ml medium (DMEM) and 0.5 ml of the mixture was added to the cells and incubated for 4 h at 37° C. The transfection efficiency expressed as a percentage of GFP positive cells was measured by FACS (Fluorescence Activated Cell Soorting) 48 hours after the transfection.
(§5) Control wells underwent identical steps except that no cationic amphiphile was added.

COS-7 and HepG2 cells [2] = assay: Cell survival after transfection (cell line not given); format: cell-based; conditions: cell line and helper lipid not given; for % surv / % surv mean: Table 11
Protocol: as §1, §2, §3, §4, §5
Throughout, for % surv mean: tested at 6.8 µM.

SMILES | % TE (COS-7 and HepG2 cells [1]; Table 1) [%] | % TE (COS-7 and HepG2 cells [1]; Table 2) [%] | % TE (COS-7 and HepG2 cells [1]; Table 7) [%] | % TE (COS-7 and HepG2 cells [1]; Table 8) [%] | % TE (COS-7 and HepG2 cells [1]; Table 9) [%] | % TE (COS-7 and HepG2 cells [1]; Table 10) [%] | % surv cells (COS-7 and HepG2 cells [2]; Table 1) [%] | % surv cells (COS-7 and HepG2 cells [2]; Table 2) [%] | % surv cells (COS-7 and HepG2 cells [2]; Table 7) [%] | % surv cells (COS-7 and HepG2 cells [2]; Table 8) [%] | % surv cells (COS-7 and HepG2 cells [2]; Table 9) [%] | % surv cells (COS-7 and HepG2 cells [2]; Table 10) [%] | further results
CCCCCCCC/C=C\CCCCCCCCC(CCCCCCCC/C=C\CCCCCCCC)c1cc[n+](C)cc1.[Cl-] [S2, reference compound] | 25.17 | 16.27 | 51.9 | 12.91 | 7.55 | 1.78 | 62.6 | 43.38 | 82.51 | 60.78 | 65.19 | 21.81 | % TE (COS-7 and HepG2 cells [1]; Table 11, first value): 41.2%; % TE mean (COS-7 and HepG2 cells [1]; Table 11): 42.8%; % TE (COS-7 and HepG2 cells [1]; Table 11, second value): 44.4%; % surv (COS-7 and HepG2 cells [2]; first value): 87.64%; % surv mean (COS-7 and HepG2 cells [2]): 87.24%; % surv (COS-7 and HepG2 cells [2]; second value): 86.84%
CCCCCCCC/C=C\CCCCCCCC[n+]1ccc(CCCCCCCCCCCCCCCCCCC)cc1.[Cl-] [SF14, 1-(9′-cis-octadecenyl)4nonadecyl-pyridinium Chloride] |  |  |  |  |  |  |  |  |  |  |  |  | % TE (COS-7 and HepG2 cells [1]; Table 4): 7.72%; % TE (COS-7 and HepG2 cells [1]; Table 5): 2.79%; % TE (COS-7 and HepG2 cells [1]; Table 6): 1.6%; % TE (COS-7 and HepG2 cells [1]; Table 11, first value): 2.41%; % TE mean (COS-7 and HepG2 cells [1]; Table 11): 3.1%; % TE (COS-7 and HepG2 cells [1]; Table 11, second value): 3.78%; % surv cells (COS-7 and HepG2 cells [2]; Table 4): 78.64%; % surv cells (COS-7 and HepG2 cells [2]; Table 5): 87.81%; % surv cells (COS-7 and HepG2 cells [2]; Table 6): 93.14%; % surv (COS-7 and HepG2 cells [2]; first value): 88.63%; % surv mean (COS-7 and HepG2 cells [2]): 87.805%; % surv (COS-7 and HepG2 cells [2]; second value): 86.98%
CCCCCCCC/C=C\CCCCCCCC[n+]1ccc(CCCCCCCCCCCCC)cc1.[Cl-] [SF30, 1-(9′-cis-octadecenyl)-4-tridecyl-pyridinium Chloride] | 9.73 | 16.61 | 13.61 | 3.09 | 13.61 | 5.32 | 78.45 | 46.45 | 84.28 | 75.35 | 84.28 | 60.16 | 
CCCCCCCCCCCCCc1cc[n+](CCCCCCCC)cc1.[Cl-] [SF32, 1-octyl-4-tridecyl-pyridinium Chloride] | 0.83 | 6.99 | 1.56 | 4.44 | 5.19 | 2.19 | 71.07 | 44.08 | 81.56 | 72.1 | 56.32 | 78.75 | 
CCCCCCCCCCCCCc1cc[n+](CCCCCCCCCC)cc1.[Cl-] [SF33, 1-decyl-4-tridecyl-pyridinium Chloride] | 3.07 | 9.71 | 0.05 | 3.82 | 3.85 | 5.77 | 78.47 | 39.82 | 87.79 | 75.05 | 68.99 | 69.94 | 
CCCCCCCCCCCCCc1cc[n+](CCCCCCCCCCCC)cc1.[Cl-] [SF34, 1-dodecyl-4-tridecyl-pyridinium Chloride] | 13.51 | 7.13 | 4.3 | 4.77 | 4.3 | 6.26 | 56.91 | 40.88 | 84.47 | 50.43 | 68.01 | 67.89 | 
CCCCCCCCCCCCCC[n+]1ccc(CCCCCCCCCCCCC)cc1.[Cl-] [SF35, 1-tetradecyl-4-tridecyl-pyridinium Chloride] | 18.92 | 10.48 | 6.4 | 3.23 | 3.32 | 3.23 | 65.49 | 42.35 | 82.58 | 72.37 | 68.67 | 70.39 | 
